Values of other authors as cited in US12533310B2, “Fragrance or flavor composition” (Takasago International Corporation, priority 2019, dated 2026).

Legend:
[1] = background art, Patent Literature 4; cited from earlier work
olfactory receptor OR2W1 = molecular target: T1, olfactory receptor OR2W1 (Homo sapiens, UniProt Q9Y3N9); conditions: background art, Patent Literature 4; cited from earlier work
T1 sequence (Q9Y3N9 1-320): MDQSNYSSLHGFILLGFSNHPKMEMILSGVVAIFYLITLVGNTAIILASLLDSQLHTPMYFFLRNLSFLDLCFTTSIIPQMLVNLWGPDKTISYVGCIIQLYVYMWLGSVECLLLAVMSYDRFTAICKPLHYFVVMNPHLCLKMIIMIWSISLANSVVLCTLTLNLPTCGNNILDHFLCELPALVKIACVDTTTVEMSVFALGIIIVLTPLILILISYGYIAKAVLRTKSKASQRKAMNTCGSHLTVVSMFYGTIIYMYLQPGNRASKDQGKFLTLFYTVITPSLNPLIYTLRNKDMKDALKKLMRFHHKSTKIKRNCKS

In the case of `CC(C)c1cccc(C(C)CC=O)c1` (centres unmarked) [florhydral], the “suppression of offensive odor induced by hexanoic acid in sensory testing” value [1] is given as “suppress an offensive odor induced by hexanoic acid” and the “inhibition of the activity of OR2W1” value (olfactory receptor OR2W1) is given as “inhibiting the activity of this OR2W1”.
